Test results: patent US10813935B2, “Methods and compositions for treating drug resistance in cancer” (UNIVERSITY OF SOUTH FLORIDA, priority 2017, dated 2020)

How the values were obtained:
[1] = tested on: H1975, H1650 and H1299 human lung cancer cell lines (parental and drug resistant); experiment: Drug sensitivity in parental and DR cell lines, Cell Titer Glo cell viability; assay type: cell-based
Protocol: To investigate drug resistance to EGFR TKIs, we developed lapatinib resistant human lung cancer cell lines as model for de novo drug resistance. To derive drug resistant (DR) cells, H1975 human lung cancer cells, that carry L858R and T790M point mutations in exons 20 and 21 of EGFR, were grown in a static concentration of lapatinib for up to 30 days. We also developed EGFR TKI resistant H1650 and H1299 human lung cancer cell lines to confirm any potential findings in cell lines with different EGFR mutations, thereby enhancing the reproducibility and relevance of the work. The drug sensitivity of the parental and DR cells on both the monolayer and the 3D scaffold were determined by testing a panel of standard-of-care chemotherapeutics along with EGFR TKIs. Drug sensitivity in parental- and DR-cell lines were determined. Cells were treated in triplicates with indicated concentrations of the identified drug for 72 hours in monolayer cultures and for 48 hours in scaffold cultures. For cells grown on the scaffold, drugs were added on day 3, as compared to 24 hours for monolayer. Cell viability was determined using Cell Titer Glo assay (Promega). Average luminescence as a percentage of control in lapatinib treated cultures on the monolayer (Blue) and the scaffold (Red) is shown. Experiments were repeated at least two times. […]

[2] = tested on: p-EGFR; experiment: Western blot of whole cell lysates (cleaved EGFR, p-EGFR, CYP51A1) after drug treatment; assay type: cell-based, human; details: treated 48 hours
Protocol: Cells were treated with lapatinib or ketoconazole for 48 hours. The expression of cleaved EGFR, p-EGFR, CYP51A1 were examined using western blotting of the whole cell lysates. β-Actin was included as a loading control.

[3] = tested on: H1650 cells; experiment: Development of lapatinib resistance in parental H1650 cells, bright field microscopy; assay type: cell-based, human; details: drugs added at plating, 72 hours
Protocol: Drug-resistant cells (DR) were compared to parental cell lines. 500,000 H1650 cells were plated in 1 well of a 6-well plate and treated with the indicated drugs at the time of plating. They were allowed to grow for 72 hours.

Q: Which “resistance of EGFR TKI resistant cells to other anti-cancer agents” value [1] does the source give for `Nc1ccn([C@@H]2O[C@H](CO)[C@@H](O)C2(F)F)c(=O)n1` [gemcitabine] here?
A: The value was “resistant”.

Q: For `CC(=O)N1CCN(c2ccc(OCC3COC(Cn4ccnc4)(c4ccc(Cl)cc4Cl)O3)cc2)CC1` (centres unmarked) [ketoconazole], which “p-EGFR in the H1650-DR cells” value ([2]; H1650-DR cells, western blot) is on record?
A: Its value is “inhibited p-EGFR”.

Q: What about the EGFR downstream signaling ([2]; western blot of whole cell lysates) of the same compound?
A: Its EGFR downstream signaling is “induced lowering of EGFR downstream signaling”.

Q: What about the “development of lapatinib resistance in parental H1650 cells” value [3] of the same compound?
A: Its value is “alleviated development of lapatinib resistant”.

Q: `CC(=O)O[C@H]1C(=O)[C@@]2(C)[C@H]([C@H](OC(=O)c3ccccc3)[C@]3(O)C[C@H](OC(=O)[C@H](O)[C@@H](NC(=O)c4ccccc4)c4ccccc4)C(C)=C1C3(C)C)[C@]1(OC(C)=O)CO[C@@H]1C[C@@H]2O` [taxol] was tested. Which “resistance of EGFR TKI resistant cells to other anti-cancer agents” value [1] did it give?
A: Its value is “resistant”.
